How the values were obtained:
BCA = target: T1, BCA (Bos taurus, UniProt P00921); test: Effect of DNSA present in the denaturing solution on rate of SDS denaturation; set-up: species or system bovine; conditions: DNSA present with the protein in the denaturing SDS solution
T1 construct: purchased Sigma-Aldrich (St. Louis, Mo.)
Experimental: The kinetics of unfolding were determined as follows. The rates of denaturation of BCA and BCA-Ac18 were measured by incubating the protein (200 nM) in solutions of different concentrations of SDS. Immediately prior to the measurement, an aliquot of solution containing protein and SDS was mixed with a solution containing DNSA and the same concentration of SDS; this protocol minimized the possibility that DNSA might stabilize the native conformation of the protein, and influence the rate of its denaturation. When BCA was denatured in concentrations of SDS of 4 mM and higher, DNSA was added to the original, denaturing solution because the rate of denaturation was too fast to follow with manual mixing of aliquots of protein and DNSA. It was observed that DNSA, when present with the protein in the denaturing solution, reduced the rates of denaturation by factors of about 2-10.

Surface area calculation = test: Surface area calculation
Experimental: A surface area calculation was also performed to determine the change in surface area between the conversion of BCA to BCA-Ac18 and BCA to BCA-Hex18. It was calculated that the reaction with acetic anhydride changed the surface area of BCA by 400 Å^2 and the reaction with hexanoic anhydride changed the surface area of BCA by 1180 Å^2. Since this change is a factor of 2.9, it can be concluded that this estimate that each modification with hexanoic anhydride adds three times the amount of surface area than modification with acetic anhydride is justified.

T1 sequence (P00921 whole entry): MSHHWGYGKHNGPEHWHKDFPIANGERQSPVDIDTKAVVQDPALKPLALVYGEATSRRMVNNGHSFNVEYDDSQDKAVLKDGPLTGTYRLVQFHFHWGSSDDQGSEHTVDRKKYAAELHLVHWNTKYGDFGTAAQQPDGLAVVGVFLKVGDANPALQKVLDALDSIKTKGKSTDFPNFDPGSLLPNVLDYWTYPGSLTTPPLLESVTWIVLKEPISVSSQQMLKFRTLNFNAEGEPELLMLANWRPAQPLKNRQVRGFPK

Compound	factor by which rates of denaturation are reduced (BCA)	ratio of surface area change, hexanoic vs acetic anhydride (Surface area calculation)
CN(C)c1cccc2c(S(N)(=O)=O)cccc12 [DNSA, Dansyl amide]	2-10	
BCA-Hex18: BCA with all 18 lysines modified with hexanoic anhydride		2.9

Reference: patent US20080113421A1, “Stabilizing proteins against denaturation and inactivation by charged detergents using chemical modifications, including modifications that increase net charge” (President and Fellows of Harvard College, priority 2006, published 2008)
